Drawing on PubChem BioAssay (NCI), this text covers TGI for seven compounds.

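48-hour exposure; five concentrations; linearly interpolated endpoints. Definition used: TGI = concentration required for complete inhibition of growth.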 Bounds are passed on as bounds.

Some test systems named below: A498 renal; A549 NSCLC; COLO 205 colon; EKVX NSCLC; HCT-15 colon; HS 578T breast; K-562 leukemia; LOX IMVI melanoma; MDA-MB-231 breast; NCI-H23 lung; SF-268 CNS; SF-539 CNS; SK-MEL-5 melanoma; SR leukemia; TK-10 renal; UACC-257 melanoma; UACC-62 melanoma; M14 melanoma; NCI-H226 lung; OVCAR-3 ovarian.
Common to all, as to test: NCI-60 cell line screen, 48 h

In the case of `S=C=Nc1ccc(CSc2nc3ccccc3[nH]2)cc1`, the TGI in the experiment on A498 renal is 46 µM; with A549 NSCLC it was 31 µM; in the experiment with COLO 205 colon it was 29 µM; in the experiment with EKVX NSCLC it was 40.4 µM; in the experiment with HCT-15 colon, 28.4 µM; with HS 578T breast, over 100 µM. In addition, the TGI in the experiment with K-562 leukemia was over 100 µM; in the experiment on LOX IMVI melanoma, 35.6 µM; in the experiment with MDA-MB-231 breast it was 51.6 µM; in the experiment on NCI-H23 lung, 32.7 µM; in the experiment with SF-268 CNS it was 37.8 µM; in the experiment with SF-539 CNS it was 33.4 µM. Moreover, the TGI stood at 29.4 µM in the experiment with SK-MEL-5 melanoma; 65.4 µM in the experiment with SR leukemia; 38.9 µM in the experiment with TK-10 renal; 34.1 µM in the experiment with UACC-257 melanoma; 29.4 µM in the experiment on UACC-62 melanoma.
With `O=C1c2c(Br)sc(Br)c2[C@@H](Cl)[C@H]1Cl`, the TGI in the experiment with A498 renal was over 100 µM; with A549 NSCLC, 79.7 µM; in the experiment with COLO 205 colon, 31.8 µM; in the experiment with EKVX NSCLC it was 46.6 µM; with HCT-15 colon it was 71.3 µM; in the experiment on HS 578T breast it was over 100 µM. In addition, the TGI in the experiment with K-562 leukemia is over 100 µM; in the experiment on LOX IMVI melanoma it was 51 µM; in the experiment with M14 melanoma, 39.1 µM; in the experiment on MDA-MB-231 breast it was 36.8 µM; with NCI-H226 lung, 36.4 µM; in the experiment with NCI-H23 lung, 94 µM. The TGI in the experiment on OVCAR-3 ovarian stood at 30 µM; in the experiment with SF-268 CNS, 39.8 µM; in the experiment with SF-539 CNS it was 27.1 µM; in the experiment on SK-MEL-5 melanoma it was 31.1 µM; with SR leukemia, 9.14 µM; in the experiment with TK-10 renal, 87.3 µM. Also, the TGI was determined as 30.9 µM in the experiment on UACC-257 melanoma and 34.6 µM in the experiment with UACC-62 melanoma.
For `O=[N+]([O-])c1ccc(-n2nc3ccc4c(no[n+]4[O-])c3[n+]2[O-])c([N+](=O)[O-])c1`, the TGI with A498 renal was determined as 16.3 µM; in the experiment with A549 NSCLC, 31.4 µM; in the experiment on COLO 205 colon it was 3.29 µM; in the experiment with EKVX NSCLC it was 26.6 µM; in the experiment with HCT-15 colon it was 7.75 µM; in the experiment on HS 578T breast, 8.6 µM. Further, the TGI is 5.75 µM in the experiment on K-562 leukemia; 4.33 µM in the experiment on LOX IMVI melanoma; 3.29 µM with M14 melanoma; 4.64 µM in the experiment on MDA-MB-231 breast; 23.3 µM in the experiment with NCI-H226 lung; 5.43 µM in the experiment with NCI-H23 lung. Besides, the TGI with OVCAR-3 ovarian was 6.39 µM; in the experiment with SF-268 CNS it was 13.8 µM; in the experiment with SF-539 CNS it was 12.7 µM; with SK-MEL-5 melanoma, 7.54 µM; in the experiment with SR leukemia, over 21.4 µM; in the experiment with TK-10 renal it was 6.88 µM. Besides, the results for the TGI with UACC-257 melanoma and with UACC-62 melanoma were 3.65 µM and 7.72 µM, respectively.
`C[C@@H]1[C@H](O)CC2=C(CC[C@@H](O)C2(C)C)[C@@]1(CO)CCc1ccoc1`: the TGI in the experiment with A498 renal, in the experiment on A549 NSCLC, in the experiment with COLO 205 colon, in the experiment with EKVX NSCLC, in the experiment on HCT-15 colon and in the experiment on HS 578T breast was over 50 µM each time. Further, the TGI in the experiment on K-562 leukemia, in the experiment on LOX IMVI melanoma, in the experiment on M14 melanoma, in the experiment on MDA-MB-231 breast, in the experiment on NCI-H226 lung and in the experiment on NCI-H23 lung was over 50 µM throughout. Further, the TGI in the experiment with OVCAR-3 ovarian, in the experiment with SF-539 CNS, in the experiment with SK-MEL-5 melanoma, in the experiment with SR leukemia, with TK-10 renal and in the experiment on UACC-257 melanoma was over 50 µM throughout. The TGI with UACC-62 melanoma is over 50 µM.
In the case of `CC1C2CCC3C(O)C2(CC(O)C2(O)C1CC(O)C2(C)C)CC3(C)O` (stereo not drawn), the TGI in the experiment on A498 renal, in the experiment with A549 NSCLC, in the experiment with COLO 205 colon, in the experiment with EKVX NSCLC, with HCT-15 colon and in the experiment with HS 578T breast was over 100 µM each time. In addition, the TGI in the experiment with K-562 leukemia, with LOX IMVI melanoma, in the experiment on M14 melanoma, with MDA-MB-231 breast, in the experiment with NCI-H226 lung and in the experiment on NCI-H23 lung was over 100 µM in each case. Also, the TGI in the experiment on SF-268 CNS, with SF-539 CNS, in the experiment on SK-MEL-5 melanoma, with SR leukemia, in the experiment on TK-10 renal and in the experiment on UACC-257 melanoma was over 100 µM each time. In the experiment on UACC-62 melanoma, this compound gave a TGI of over 100 µM.
Turning to `CC(=O)OC1OC(c2ccoc2)C[C@@]12C1CCC3O[C@]3(C)[C@]1(C)[C@H](OC(C)=O)[C@H](OC(C)=O)[C@H]2C` (stereo partly drawn), the TGI in the experiment on A498 renal, with A549 NSCLC, in the experiment on COLO 205 colon, in the experiment with EKVX NSCLC, with HCT-15 colon and with HS 578T breast was over 37.5 µM each time. The TGI with K-562 leukemia, with LOX IMVI melanoma, with M14 melanoma, in the experiment on MDA-MB-231 breast, with NCI-H226 lung and in the experiment with NCI-H23 lung was over 37.5 µM each time. For the same compound, the TGI in the experiment on OVCAR-3 ovarian, in the experiment on SF-539 CNS, in the experiment with SK-MEL-5 melanoma, with SR leukemia, in the experiment on TK-10 renal and in the experiment with UACC-257 melanoma was over 37.5 µM each time. The same compound came in with a TGI in the experiment on UACC-62 melanoma of over 37.5 µM.
Turning to `Cn1c(=O)c2sc3c4sc5c(=O)n(C)c6ccccc6c5c4sc3c2c2ccccc21`, the TGI in the experiment on A498 renal, with A549 NSCLC, in the experiment with COLO 205 colon, in the experiment on EKVX NSCLC, in the experiment with HCT-15 colon and in the experiment with HS 578T breast was over 100 µM in each case. For the same compound, the TGI in the experiment on K-562 leukemia, with M14 melanoma, with MDA-MB-231 breast, with NCI-H226 lung, in the experiment with NCI-H23 lung and in the experiment with OVCAR-3 ovarian was over 100 µM in each case. Moreover, the TGI in the experiment with SF-268 CNS, in the experiment on SF-539 CNS, in the experiment on SK-MEL-5 melanoma, with SR leukemia, with TK-10 renal and in the experiment on UACC-257 melanoma was over 100 µM each time. The TGI in the experiment with UACC-62 melanoma is over 100 µM.
